Measurements reported in patent US20220267231A1, “FERTILIZER CONTAINING A SEED GRIND AND A METHOD OF USING THE FERTILIZER TO ENHANCE PLANT GROWTH” (Innovations for World Nutrition, LLC, priority 2020, published 2022).

Tests used:
Format in all cases: in vivo
corn = test: Early growth of corn in transparent cups, dry weight of seedlings; settings: for Dry Weight of Roots / Total Dry Weight of Plant + Roots / % Difference from Baseline for Plant + Roots / % Difference from Baseline for Roots Only: corn; for Dry Weight of Roots / Total Dry Weight of Plant + Roots: 24 days after planting, .P buried at planting, .L buried 11 days after planting; for % Difference from Baseline for Plant + Roots / % Difference from Baseline for Roots Only: 24 days, compared to the baseline with the highest total weight
Description: Each cup was given 0.2 g urea in 25 mL of solution. Two corn seeds were planted in each cup 1 inch deep and 3 inches apart. The cups holding the soil were transparent plastic and were placed inside opaque cups. The seeds were planted in the soil against the inside surface of the transparent cups and the outer opaque cups protected the roots from light during growth. By removing the inner cups, the roots were viewed and pictures taken without disturbing the plants as they were developing and therefore a view of the early growth of the roots was possible. […] After planting the seeds, the mixtures in Table 12 were buried 1.27 cm (½ inch) deep in the center of each cup. Some of these were buried on the same day as the seed was planted (noted as .P in Table 13), and others were buried 11 days after the seed was planted (noted as .L in Table 13). […] If two seeds sprouted in a cup, the second was immediately removed. One cup for each formulation was tested. The baseline was tested in duplicate. Twenty-four days after planting the corn, the plants with roots were gently removed from the cups, rinsed, dried, and weighed. The % differences shown in Table 13 are compared to the baseline with the highest weight of total weight for the plant and roots.

wheat = test: Early growth of wheat in transparent cups, dry weight of seedlings; settings: for Dry Weight of Roots Only / Dry Weight of Total Plant + Roots: 28 days after planting, .P buried at planting, .L buried 11 days after planting; for % Difference for Plant + Roots / % Difference for Roots Only: 28 days, compared to the baseline with the highest total weight
Description: Each cup was given 0.2 g urea in 25 mL of solution. Four wheat seeds were planted in each cup 1 inch deep and 3 inches apart. The cups holding the soil were transparent plastic and were placed inside opaque cups. The seeds were planted in the soil against the inside surface of the transparent cups and the outer opaque cups protected the roots from light during growth. By removing the inner cups, the roots were viewed and pictures taken without disturbing the plants as they were developing and therefore a view of the early growth of the roots was possible. […] After planting the seeds, the mixtures in Table 12 were buried 1.27 cm (½ inch) deep in the center of each cup. Some of these were buried on the same day as the seeds were planted (noted as .P in Table 14), and others were buried 11 days after the seed was planted (noted as .L in Table 14). If more than two seeds sprouted in a cup, the seedlings were removed to allow only two to remain. One of each formulation was tested. The baseline was tested in duplicate. Twenty-eight days after planting the wheat, the plants with roots were gently removed from the cups, rinsed, dried, and weighed.

cotton = test: Early growth of cotton in transparent cups, dry weight of plants and roots; settings: cotton cup test
Description: Each cup was given 0.2 g urea in 25 mL of solution. […] The cups holding the soil were transparent plastic and were placed inside opaque cups. The seeds were planted in the soil against the inside surface of the transparent cups and the outer opaque cups protected the roots from light during growth. By removing the inner cups, the roots were viewed and pictures taken without disturbing the plants as they were developing and therefore a view of the early growth of the roots was possible. […] If two seeds sprouted in a cup, the second was immediately removed.

O=C([O-])O.[K+] [A.P, potassium bicarbonate]
Dry Weight of Roots (corn): 0.2313 g
Total Dry Weight of Plant + Roots (corn): 0.5292 g
Dry Weight of Roots (corn; listed as A.L): 0.4121 g
Total Dry Weight of Plant + Roots (corn; listed as A.L): 0.7818 g
% Difference from Baseline for Plant + Roots (corn): −20%
% Difference from Baseline for Roots Only (corn): −29%
% Difference from Baseline for Plant + Roots (corn; listed as A.L): 18%
% Difference from Baseline for Roots Only (corn; listed as A.L): 26%
Dry Weight of Roots Only (wheat): 0.0669 g
Dry Weight of Total Plant + Roots (wheat): 0.2337 g
Dry Weight of Roots Only (wheat; listed as A.L): 0.1166 g
Dry Weight of Total Plant + Roots (wheat; listed as A.L): 0.2670 g
% Difference for Plant + Roots (wheat): −8%
% Difference for Roots Only (wheat): −46%
% Difference for Plant + Roots (wheat; listed as A.L): 5%
% Difference for Roots Only (wheat; listed as A.L): −6%

O=C([O-])O.[K+] [H.P, potassium bicarbonate]
Dry Weight of Roots (corn): 0.2744 g
Total Dry Weight of Plant + Roots (corn): 0.5252 g
Dry Weight of Roots (corn; listed as H.L): 0.2538 g
Total Dry Weight of Plant + Roots (corn; listed as H.L): 0.5597 g
% Difference from Baseline for Plant + Roots (corn): −20%
% Difference from Baseline for Roots Only (corn): −16%
% Difference from Baseline for Plant + Roots (corn; listed as H.L): −15%
% Difference from Baseline for Roots Only (corn; listed as H.L): −22%
Dry Weight of Roots Only (wheat): 0.1334 g
Dry Weight of Total Plant + Roots (wheat): 0.3030 g
Dry Weight of Roots Only (wheat; listed as H.L): 0.1286 g
Dry Weight of Total Plant + Roots (wheat; listed as H.L): 0.2881 g
% Difference for Plant + Roots (wheat): 19%
% Difference for Roots Only (wheat): 7%
% Difference for Plant + Roots (wheat; listed as H.L): 13%
% Difference for Roots Only (wheat; listed as H.L): 3%

O=C([O-])O.[K+] [KBC, potassium bicarbonate]
Early growth of cotton plants and roots (in words) (cotton): produced more benefit with early growth of cotton than sodium bicarbonate
Benefit to early growth of corn (in words) (corn; corn cup test): did not provide a benefit
